Assay results reported in US20260356819A1, “OXOISOINDOLINYL-SUBSTITUTED […] DERIVATIVE AND USE THEREOF” (GLUETACS THERAPEUTICS (SHANGHAI) CO., LTD., priority 2023, published 2026).

Tests used:
Assay type in all cases: cell-based
Conditions in all cases: compounds at 50 nM and 500 nM
CK1α = target: T1, CK1α (Homo sapiens, UniProt P48729+Q96SW2); experiment: Western blot degradation of CK1α in hPBMCs (24 h)
T1 construct: The supernatant was aspirated as the extracted total cell protein; endogenous in cells; host or cells: human peripheral blood mononuclear cells (hPBMCs)
Experimental: (§1) Conventional Western blot assay was performed to evaluate the effects of the compounds of the present disclosure on the expression of target proteins in cells. • (1) Cell Seeding and Protein Harvesting: Human peripheral blood mononuclear cells (hPBMCs) at a density of 1×10^6 cells/mL were thawed according to the PBMC Recovery Protocol (Milecell Biotechnologies Inc, Shanghai). The cells were then treated with the compounds of the present disclosure (including the compounds listed in Table 1, and the Examples 1-498 compounds) at concentrations of 50 nM and 500 nM. Controls included a negative control (DMSO) and a positive control (the commercial immunomodulatory drug lenalidomide), both processed following the identical experimental protocol as the compounds of the present disclosure. After 24 hours of compounds treatment, cells were harvested and lysed in RIPA protein lysate containing protease inhibitors on ice for 30 min, followed by centrifugation. The supernatant was aspirated as the extracted total cell protein. The protein concentration of the supernatant was determined using the conventional BCA (Bicinchoninic Acid) assay. • (2) To the collected supernatant, 5×SDS sample loading buffer was added, followed by denaturation at 95 °C for 5 minutes. The denatured samples were then separated by SDS-PAGE electrophoresis on a polyacrylamide gel. Proteins were transferred to a nitrocellulose membrane (0.45 μm NC membrane), blocked with blocking buffer at room temperature for 1 hour, and subjected to antibody incubation and development procedures according to the antibody manufacturer's instructions (Cell Signaling Technology).
(§2) Half-Maximal Degradation Concentration value (the drug concentration required for degrading proteins by 50%, abbreviated as DC50) reads method: comparing the grayscale values of Western blot bands from drug-treated samples with those from blank DMSO-treated controls, and identifying the drug concentration range at which the grayscale value is half that of the DMSO-treated control bands.
(§3) DC50 values can be calculated using ImageJ software to measure grayscale values of Western blot bands from drug-treated samples. The concentration-response curve is fitted to estimate the drug concentration corresponding to half the grayscale value.
(§4) Target protein remaining (%) refers to the percentage of target protein remaining in cells after treatment with protein degrader compounds.
(§5) Calculation method for target protein remaining (%): Use ImageJ software to measure grayscale values of Western blot bands from drug (protein degrader)-treated samples. The grayscale value of drug-treated bands is divided by that of internal control protein bands, and the resulting quotient is normalized to obtain the relative percentage of remaining target protein after protein degrader treatment.
(§6) Target protein degradation rate (%)=1−target protein remaining (%).

IKZF1 = target: T2, IKZF1 (Homo sapiens, UniProt Q13422+Q96SW2); experiment: Western blot degradation of IKZF1 in hPBMCs (24 h)
T2 construct: The supernatant was aspirated as the extracted total cell protein; endogenous in cells; host or cells: human peripheral blood mononuclear cells (hPBMCs)
Experimental: as §1, §2, §3, §4, §5, §6

IKZF2 = target: T3, IKZF2 (Homo sapiens, UniProt Q96SW2+Q9UKS7); experiment: Western blot degradation of IKZF2 in hPBMCs (24 h)
T3 construct: The supernatant was aspirated as the extracted total cell protein; endogenous in cells; host or cells: human peripheral blood mononuclear cells (hPBMCs)
Experimental: as §1, §2, §3, §4, §5, §6

GSPT1 = target: T4, GSPT1 (Homo sapiens, UniProt P15170+Q96SW2); experiment: Western blot degradation of GSPT1 in hPBMCs (24 h)
T4 construct: The supernatant was aspirated as the extracted total cell protein; endogenous in cells; host or cells: human peripheral blood mononuclear cells (hPBMCs)
Experimental: as §1, §2, §3, §4, §5, §6

IKZF3 = target: T5, IKZF3 (Homo sapiens, UniProt Q96SW2+Q9UKT9); experiment: Western blot degradation of IKZF3 in hPBMCs (24 h)
T5 construct: The supernatant was aspirated as the extracted total cell protein; endogenous in cells; host or cells: human peripheral blood mononuclear cells (hPBMCs)
Experimental: as §1, §2, §3, §4, §5, §6

WEE1 = target: T6, WEE1 (Homo sapiens, UniProt P30291+Q96SW2); experiment: Western blot degradation of WEE1 in hPBMCs (24 h)
T6 construct: The supernatant was aspirated as the extracted total cell protein; endogenous in cells; host or cells: human peripheral blood mononuclear cells (hPBMCs)
Experimental: as §1, §2, §3, §4, §5, §6

T5 sequence (Q9UKT9 whole entry): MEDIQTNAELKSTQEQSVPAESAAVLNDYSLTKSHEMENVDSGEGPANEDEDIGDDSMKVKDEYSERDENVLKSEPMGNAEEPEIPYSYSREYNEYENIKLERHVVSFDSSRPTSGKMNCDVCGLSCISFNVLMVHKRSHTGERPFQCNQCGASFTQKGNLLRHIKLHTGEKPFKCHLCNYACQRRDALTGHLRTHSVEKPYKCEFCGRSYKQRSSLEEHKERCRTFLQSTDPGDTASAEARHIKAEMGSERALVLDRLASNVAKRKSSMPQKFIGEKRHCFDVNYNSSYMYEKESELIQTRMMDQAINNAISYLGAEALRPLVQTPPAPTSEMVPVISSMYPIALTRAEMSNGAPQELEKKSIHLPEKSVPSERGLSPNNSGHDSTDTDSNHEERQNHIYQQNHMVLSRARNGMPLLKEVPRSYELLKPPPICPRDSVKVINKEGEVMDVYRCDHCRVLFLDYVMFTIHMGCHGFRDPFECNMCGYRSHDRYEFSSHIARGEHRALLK
T5 sequence (Q96SW2 whole entry): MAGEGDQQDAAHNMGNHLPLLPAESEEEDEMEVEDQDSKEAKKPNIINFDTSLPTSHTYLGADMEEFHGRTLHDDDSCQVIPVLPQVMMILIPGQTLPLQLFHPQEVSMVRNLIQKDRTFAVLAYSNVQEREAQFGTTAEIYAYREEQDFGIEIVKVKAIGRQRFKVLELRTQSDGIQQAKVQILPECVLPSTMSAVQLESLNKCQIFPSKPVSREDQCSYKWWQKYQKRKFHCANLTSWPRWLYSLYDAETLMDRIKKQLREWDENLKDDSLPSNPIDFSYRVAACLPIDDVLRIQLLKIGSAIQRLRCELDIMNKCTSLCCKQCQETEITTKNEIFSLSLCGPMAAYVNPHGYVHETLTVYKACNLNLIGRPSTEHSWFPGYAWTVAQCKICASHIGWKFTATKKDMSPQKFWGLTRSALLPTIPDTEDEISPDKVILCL
T5 sequence (Q16531 whole entry partner): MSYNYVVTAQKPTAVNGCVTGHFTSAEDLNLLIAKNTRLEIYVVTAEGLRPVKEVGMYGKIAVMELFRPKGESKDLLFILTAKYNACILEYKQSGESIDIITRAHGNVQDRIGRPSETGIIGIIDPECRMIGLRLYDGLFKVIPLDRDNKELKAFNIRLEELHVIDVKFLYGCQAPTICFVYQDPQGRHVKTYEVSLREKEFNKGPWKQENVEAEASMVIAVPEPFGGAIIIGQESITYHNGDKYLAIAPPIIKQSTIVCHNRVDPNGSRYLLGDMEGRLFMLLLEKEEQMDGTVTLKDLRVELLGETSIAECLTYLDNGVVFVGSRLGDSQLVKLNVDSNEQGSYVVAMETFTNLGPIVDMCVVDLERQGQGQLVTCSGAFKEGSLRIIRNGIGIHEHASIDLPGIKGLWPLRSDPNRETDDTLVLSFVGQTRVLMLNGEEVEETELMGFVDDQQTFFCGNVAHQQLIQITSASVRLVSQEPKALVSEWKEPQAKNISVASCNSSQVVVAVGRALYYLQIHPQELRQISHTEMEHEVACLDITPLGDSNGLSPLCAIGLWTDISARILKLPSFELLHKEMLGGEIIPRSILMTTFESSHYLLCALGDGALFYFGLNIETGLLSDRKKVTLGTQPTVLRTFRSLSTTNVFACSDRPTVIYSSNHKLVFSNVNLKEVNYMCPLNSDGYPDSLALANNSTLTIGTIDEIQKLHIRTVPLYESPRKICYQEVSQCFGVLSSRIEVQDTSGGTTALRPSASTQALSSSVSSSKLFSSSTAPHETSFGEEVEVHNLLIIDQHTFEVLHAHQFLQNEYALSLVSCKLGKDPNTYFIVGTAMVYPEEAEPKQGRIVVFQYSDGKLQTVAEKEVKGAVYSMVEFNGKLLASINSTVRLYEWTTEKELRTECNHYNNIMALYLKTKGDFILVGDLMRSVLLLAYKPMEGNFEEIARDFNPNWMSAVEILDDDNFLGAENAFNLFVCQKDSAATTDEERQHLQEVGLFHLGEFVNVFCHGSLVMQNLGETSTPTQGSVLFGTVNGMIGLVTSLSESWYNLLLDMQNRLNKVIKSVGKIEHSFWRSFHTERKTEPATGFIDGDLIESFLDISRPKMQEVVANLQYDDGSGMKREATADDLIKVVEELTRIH
T1 sequence (P48729 whole entry): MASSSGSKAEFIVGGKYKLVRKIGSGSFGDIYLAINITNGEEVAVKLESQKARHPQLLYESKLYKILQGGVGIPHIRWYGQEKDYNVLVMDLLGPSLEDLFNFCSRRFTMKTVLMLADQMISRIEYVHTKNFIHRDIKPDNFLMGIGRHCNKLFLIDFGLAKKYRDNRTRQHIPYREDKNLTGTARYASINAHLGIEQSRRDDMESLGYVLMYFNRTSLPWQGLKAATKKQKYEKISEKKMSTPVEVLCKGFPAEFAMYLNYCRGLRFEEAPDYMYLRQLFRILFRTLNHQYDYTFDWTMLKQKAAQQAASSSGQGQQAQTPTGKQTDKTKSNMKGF
T1 sequence (Q96SW2 whole entry): as the sequence (Q96SW2 whole entry) above
T1 sequence (Q16531 whole entry partner): as the sequence (Q16531 whole entry partner) above
T2 sequence (Q13422 whole entry): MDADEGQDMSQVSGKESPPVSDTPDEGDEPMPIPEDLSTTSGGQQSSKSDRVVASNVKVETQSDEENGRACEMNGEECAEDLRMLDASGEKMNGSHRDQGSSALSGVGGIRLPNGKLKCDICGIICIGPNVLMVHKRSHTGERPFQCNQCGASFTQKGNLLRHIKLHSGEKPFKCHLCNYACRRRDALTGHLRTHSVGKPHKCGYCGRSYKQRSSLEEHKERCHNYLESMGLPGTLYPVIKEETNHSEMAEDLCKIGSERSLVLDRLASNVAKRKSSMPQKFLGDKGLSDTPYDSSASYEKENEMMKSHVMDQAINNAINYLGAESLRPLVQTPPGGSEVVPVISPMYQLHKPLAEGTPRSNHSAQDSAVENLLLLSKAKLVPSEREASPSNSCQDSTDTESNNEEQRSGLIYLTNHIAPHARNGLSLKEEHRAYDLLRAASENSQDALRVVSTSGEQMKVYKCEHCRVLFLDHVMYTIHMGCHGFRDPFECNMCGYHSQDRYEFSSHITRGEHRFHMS
T2 sequence (Q96SW2 whole entry): as the sequence (Q96SW2 whole entry) above
T2 sequence (Q16531 whole entry partner): as the sequence (Q16531 whole entry partner) above
T4 sequence (P15170 whole entry): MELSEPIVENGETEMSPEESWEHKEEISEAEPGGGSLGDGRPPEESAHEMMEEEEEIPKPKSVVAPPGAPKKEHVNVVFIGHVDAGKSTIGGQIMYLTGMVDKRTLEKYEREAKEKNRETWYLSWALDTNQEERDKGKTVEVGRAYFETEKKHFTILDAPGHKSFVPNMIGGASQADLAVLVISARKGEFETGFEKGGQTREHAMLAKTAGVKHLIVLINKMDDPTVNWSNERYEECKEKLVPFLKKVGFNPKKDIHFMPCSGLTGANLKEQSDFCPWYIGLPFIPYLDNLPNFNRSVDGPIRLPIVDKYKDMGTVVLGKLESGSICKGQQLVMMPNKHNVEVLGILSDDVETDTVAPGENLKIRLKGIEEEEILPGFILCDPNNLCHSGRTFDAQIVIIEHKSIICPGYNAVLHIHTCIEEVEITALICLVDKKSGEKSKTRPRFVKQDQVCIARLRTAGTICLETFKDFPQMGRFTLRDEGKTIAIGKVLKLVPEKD
T4 sequence (Q96SW2 whole entry): as the sequence (Q96SW2 whole entry) above
T4 sequence (Q16531 whole entry partner): as the sequence (Q16531 whole entry partner) above
T3 sequence (Q9UKS7 whole entry): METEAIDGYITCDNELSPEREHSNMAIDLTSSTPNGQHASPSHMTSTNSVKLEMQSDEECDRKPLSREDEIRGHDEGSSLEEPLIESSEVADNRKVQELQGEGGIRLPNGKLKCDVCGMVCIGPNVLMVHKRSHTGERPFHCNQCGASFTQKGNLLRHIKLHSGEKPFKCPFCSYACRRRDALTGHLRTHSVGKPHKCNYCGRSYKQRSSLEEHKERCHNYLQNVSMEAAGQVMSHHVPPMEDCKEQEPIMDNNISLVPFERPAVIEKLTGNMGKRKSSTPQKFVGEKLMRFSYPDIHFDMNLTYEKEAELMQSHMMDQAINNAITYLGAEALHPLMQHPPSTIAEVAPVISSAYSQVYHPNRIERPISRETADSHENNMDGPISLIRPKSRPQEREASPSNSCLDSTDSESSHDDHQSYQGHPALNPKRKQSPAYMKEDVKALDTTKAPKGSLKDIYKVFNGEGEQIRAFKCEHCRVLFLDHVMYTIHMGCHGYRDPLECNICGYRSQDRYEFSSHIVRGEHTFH
T3 sequence (Q96SW2 whole entry): as the sequence (Q96SW2 whole entry) above
T3 sequence (Q16531 whole entry partner): as the sequence (Q16531 whole entry partner) above

Row | Compound | CK1α substrate protein remaining % (CK1α) | IKZF1 substrate protein remaining % (IKZF1) | IKZF2 substrate protein remaining % (IKZF2) | GSPT1 substrate protein remaining % (GSPT1) | IKZF3 substrate protein remaining % (IKZF3) | WEE1 substrate protein remaining % (WEE1)
1 | O=C1CCN(N2C(=O)c3ccc(CN4CCN(c5cccc(Cl)c5Cl)CC4)cc3C2=O)C(=O)N1 [GT-04854, 5-((4-(2,3-dichlorophenyl)piperazin-1-yl)methyl)-2-(2,4-dioxotetrahydropyrimidin-1(2H)-yl)isoindoline-1,3-dione] | B (80%< substrate protein remaining % ≤100%) | A (0% ≤ substrate protein remaining % ≤80%) | A (0% ≤ substrate protein remaining % ≤80%) | A (0% ≤ substrate protein remaining % ≤80%) | B (80%< substrate protein remaining % ≤100%) | A (0% ≤ substrate protein remaining % ≤80%)
2 | O=C1CCN(N2Cc3cc(CN4CCC(c5noc6cc(F)ccc56)CC4)ccc3C2=O)C(=O)N1 [GT-04864, 1-(5-((4-(6-fluorobenzo[d]isoxazol-3-yl)piperidin-1-yl)methyl)-1-oxoisoindolin-2-yl)dihydropyrimidine-2,4(1H,3H)-dione] | B (80%< substrate protein remaining % ≤100%) | A (0% ≤ substrate protein remaining % ≤80%) | B (80%< substrate protein remaining % ≤100%) | A (0% ≤ substrate protein remaining % ≤80%) | B (80%< substrate protein remaining % ≤100%) | B (80%< substrate protein remaining % ≤100%)
3 | O=C1CCN(N2Cc3cc(CN4CCN(c5nsc6ccccc56)CC4)ccc3C2=O)C(=O)N1 [GT-04865, 1-(5-((4-(benzo[d]isothiazol-3-yl)piperazin-1-yl)methyl)-1-oxoisoindolin-2-yl)dihydropyrimidine-2,4(1H,3H)-dione] | B (80%< substrate protein remaining % ≤100%) | A (0% ≤ substrate protein remaining % ≤80%) | B (80%< substrate protein remaining % ≤100%) | A (0% ≤ substrate protein remaining % ≤80%) | B (80%< substrate protein remaining % ≤100%) | B (80%< substrate protein remaining % ≤100%)
4 | O=C1CCN(N2Cc3cc(CN4CCN(C(c5ccccc5)c5ccncc5)CC4)ccc3C2=O)C(=O)N1 (stereo not drawn) [GT-04891, 1-(1-oxo-5-((4-(phenyl(pyridin-4-yl)methyl)piperazin-1-yl)methyl)isoindolin-2-yl)dihydropyrimidine-2,4(1H,3H)-dione] | B (80%< substrate protein remaining % ≤100%) | A (0% ≤ substrate protein remaining % ≤80%) | A (0% ≤ substrate protein remaining % ≤80%) | A (0% ≤ substrate protein remaining % ≤80%) | B (80%< substrate protein remaining % ≤100%) | B (80%< substrate protein remaining % ≤100%)
5 | O=C1CCN(N2Cc3cc(CN4CCN(C(c5ccc(Cl)cc5)c5ccc(Cl)cc5)CC4)ccc3C2=O)C(=O)N1 [GT-04895, 1-(5-((4-(bis(4-chlorophenyl)methyl)piperazin-1-yl)methyl)-1-oxoisoindolin-2-yl)dihydropyrimidine-2,4(1H,3H)-dione] | B (80%< substrate protein remaining % ≤100%) | A (0% ≤ substrate protein remaining % ≤80%) | A (0% ≤ substrate protein remaining % ≤80%) | A (0% ≤ substrate protein remaining % ≤80%) | B (80%< substrate protein remaining % ≤100%) | B (80%< substrate protein remaining % ≤100%)
6 | O=C1CCN(N2Cc3cc(CN4C[C@@H]5C[C@H]4CN5C(c4ccccc4)c4ccccc4)ccc3C2=O)C(=O)N1 [GT-04938, 1-(5-(((1S,4S)-5-benzhydryl-2,5-diazabicyclo[2.2.1]heptan-2-yl)methyl)-1-oxoisoindolin-2-yl)dihydropyrimidine-2,4(1H,3H)-dione] | B (80%< substrate protein remaining % ≤100%) | B (80%< substrate protein remaining % ≤100%) | A (0% ≤ substrate protein remaining % ≤80%) | A (0% ≤ substrate protein remaining % ≤80%) | B (80%< substrate protein remaining % ≤100%) | A (0% ≤ substrate protein remaining % ≤80%)
7 | O=C1CCN(N2Cc3cc(CN4CCN(c5cccs5)CC4)ccc3C2=O)C(=O)N1 [GT-05073, 1-(1-oxo-5-((4-(thiophen-2-yl)piperazin-1-yl)methyl)isoindolin-2-yl)dihydropyrimidine-2,4(1H,3H)-dione] | B (80%< substrate protein remaining % ≤100%) | B (80%< substrate protein remaining % ≤100%) | B (80%< substrate protein remaining % ≤100%) | B (80%< substrate protein remaining % ≤100%) | A (0% ≤ substrate protein remaining % ≤80%) | B (80%< substrate protein remaining % ≤100%)
8 | Cc1ccc(N2CCN(Cc3ccc4c(c3)CN(N3CCC(=O)NC3=O)C4=O)CC2)s1 [GT-05083, 1-(5-((4-(5-methylthiophen-2-yl)piperazin-1-yl)methyl)-1-oxoisoindolin-2-yl)dihydropyrimidine-2,4(1H,3H)-dione] | B (80%< substrate protein remaining % ≤100%) | B (80%< substrate protein remaining % ≤100%) | A (0% ≤ substrate protein remaining % ≤80%) | B (80%< substrate protein remaining % ≤100%) | B (80%< substrate protein remaining % ≤100%) | B (80%< substrate protein remaining % ≤100%)
9 | Cc1ccsc1N1CCN(Cc2ccc3c(c2)CN(N2CCC(=O)NC2=O)C3=O)CC1 [GT-05084, 1-(5-((4-(3-methylthiophen-2-yl)piperazin-1-yl)methyl)-1-oxoisoindolin-2-yl)dihydropyrimidine-2,4(1H,3H)-dione] | B (80%< substrate protein remaining % ≤100%) | B (80%< substrate protein remaining % ≤100%) | A (0% ≤ substrate protein remaining % ≤80%) | B (80%< substrate protein remaining % ≤100%) | B (80%< substrate protein remaining % ≤100%) | B (80%< substrate protein remaining % ≤100%)
10 | Cc1cc(N2CCN(Cc3ccc4c(c3)CN(N3CCC(=O)NC3=O)C4=O)CC2)cs1 [GT-05087, 1-(5-((4-(5-methylthiophen-3-yl)piperazin-1-yl)methyl)-1-oxoisoindolin-2-yl)dihydropyrimidine-2,4(1H,3H)-dione] | B (80%< substrate protein remaining % ≤100%) | B (80%< substrate protein remaining % ≤100%) | B (80%< substrate protein remaining % ≤100%) | A (0% ≤ substrate protein remaining % ≤80%) | B (80%< substrate protein remaining % ≤100%) | B (80%< substrate protein remaining % ≤100%)
11 | Cc1cccc(N2CCN(Cc3ccc4c(c3)CN(N3CCC(=O)NC3=O)C4=O)CC2)n1 [GT-05125, 1-(5-((4-(6-methylpyridin-2-yl)piperazin-1-yl)methyl)-1-oxoisoindolin-2-yl)dihydropyrimidine-2,4(1H,3H)-dione] | A (0% ≤ substrate protein remaining % ≤80%) | A (0% ≤ substrate protein remaining % ≤80%) | B (80%< substrate protein remaining % ≤100%) | A (0% ≤ substrate protein remaining % ≤80%) | A (0% ≤ substrate protein remaining % ≤80%) | A (0% ≤ substrate protein remaining % ≤80%)
